According to patent US12310975B2, “Modulators of BCL6 proteolysis and associated methods of use” (Arvinas Operations, Inc., priority 2019, dated 2025):

Columns and labels:
[1] = target: T1, BCL6 (Homo sapiens (Human), UniProt P41182); test: BCL6 TR-FRET assay (BCL6-Avitag-Biotin / BCoR-Cy5 peptide); assay type: binding; settings: read-out: IC50
Outline: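 After 30 min room-temperature preincubation of compound titrations with 2 nM biotinylated BCL6-Avitag, 100 nM Cy5-labelled BCoR peptide plus 2 nM Eu-streptavidin were added and TR-FRET read 2 h later. HEPES pH 7.5/125 mM NaCl buffer with Triton X, glutathione (or DTT) and BSA.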

[2] = target: T1, BCL6; test: Immunofluorescence high content imaging of BCL6 degradation in T47D cells; assay type: cell-based; settings: T47D
Outline: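 T47D cells were treated 3 days at 37 °C with an 11-point 3-fold dilution series (top 0.1 or 1 μM), then fixed, permeabilized and immunostained for BCL6 with Alexa-488 secondary, CellMask and Hoechst. BCL6 signal was imaged at 10×, 4 fields/well, with top-hat smoothing.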

Row | Compound | IC50 [1] [nM] | Dmax [2] [%]
1 | CNC(=O)COc1cc2cc(Nc3nc(N4CCC5(CC4)CCN(C4CCN(c6ccc7c(c6)C(=O)N(C6CCC(=O)NC6=O)C7=O)CC4)C5)ncc3Cl)ccc2n(C(C)C)c1=O (stereo not drawn) [compound 514, 2-[(6-{[5-chloro-2-(2-{1-[2-(2,6-dioxopiperidin-3-yl)-1,3-dioxo-2,3-dihydro-1H-isoindol-5-yl]piperidin-4-yl}-2,8-diazaspiro[4.5]decan-8-yl)pyrimidin-4-yl]amino}-2-oxo-1-(propan-2-yl)-1,2-dihydroquinolin-3-yl)oxy]-N-methylacetamide] | < 10 | < 50
2 | CNC(=O)COc1cc2cc(Nc3nc(N4CCC(N5CCC6(CCN(c7ccc8c(c7)C(=O)N(C7CCC(=O)NC7=O)C8=O)C6)CC5)CC4)ncc3Cl)ccc2n(C(C)C)c1=O (stereo not drawn) [compound 515, 2-[(6-{[5-chloro-2-(4-{2-[2-(2,6-dioxopiperidin-3-yl)-1,3-dioxo-2,3-dihydro-1H-isoindol-5-yl]-2,8-diazaspiro[4.5]decan-8-yl}piperidin-1-yl)pyrimidin-4-yl]amino}-2-oxo-1-(propan-2-yl)-1,2-dihydroquinolin-3-yl)oxy]-N-methylacetamide] | 10 to 50 | ≥ 70
3 | CNC(=O)COc1cc2cc(Nc3nc(N4CCN(CC5CC6(CCN(c7ccc8c(c7)C(=O)N(C7CCC(=O)NC7=O)C8=O)CC6)C5)CC4)ncc3Cl)ccc2n(C(C)C)c1=O (stereo not drawn) [compound 516, 2-{[6-({5-chloro-2-[4-({7-[2-(2,6-dioxopiperidin-3-yl)-1,3-dioxo-2,3-dihydro-1H-isoindol-5-yl]-7-azaspiro[3.5]nonan-2-yl}methyl)piperazin-1-yl]pyrimidin-4-yl}amino)-2-oxo-1-(propan-2-yl)-1,2-dihydroquinolin-3-yl]oxy}-N-methylacetamide] | < 10 | 50 to 70
4 | CNC(=O)COc1cc2cc(Nc3nc(N4CCC(O[C@H]5C[C@H](N6CCN(c7cccc8c7C(=O)N(C7CCC(=O)NC7=O)C8=O)CC6)C5)CC4)ncc3Cl)ccc2n(C(C)C)c1=O (stereo partly drawn) [compound 518, 2-({6-[(5-chloro-2-{4-[(1r,3r)-3-{4-[2-(2,6-dioxopiperidin-3-yl)-1,3-dioxo-2,3-dihydro-1H-isoindol-4-yl]piperazin-1-yl}cyclobutoxy]piperidin-1-yl}pyrimidin-4-yl)amino]-2-oxo-1-(propan-2-yl)-1,2-dihydroquinolin-3-yl}oxy)-N-methylacetamide] | 10 to 50 | ≥ 70
5 | CNC(=O)COc1cc2cc(Nc3nc(N4CCC(N5CCC6(CCN(c7ccc8c(c7)C(=O)N(C7CCC(=O)NC7=O)C8=O)CC6)C5)CC4)ncc3Cl)ccc2n(C(C)C)c1=O (stereo not drawn) [compound 521, 2-[(6-{[5-chloro-2-(4-{8-[2-(2,6-dioxopiperidin-3-yl)-1,3-dioxo-2,3-dihydro-1H-isoindol-5-yl]-2,8-diazaspiro[4.5]decan-2-yl}piperidin-1-yl)pyrimidin-4-yl]amino}-2-oxo-1-(propan-2-yl)-1,2-dihydroquinolin-3-yl)oxy]-N-methylacetamide] | < 10 | 50 to 70
6 | CNC(=O)COc1cc2cc(Nc3nc(N4CCN(CC5CC6(C5)CN(c5ccc7c(c5)C(=O)N(C5CCC(=O)NC5=O)C7=O)C6)CC4)ncc3Cl)ccc2n(C(C)C)c1=O (stereo not drawn) [compound 523, 2-{[6-({5-chloro-2-[4-({2-[2-(2,6-dioxopiperidin-3-yl)-1,3-dioxo-2,3-dihydro-1H-isoindol-5-yl]-2-azaspiro[3.3]heptan-6-yl}methyl)piperazin-1-yl]pyrimidin-4-yl}amino)-2-oxo-1-(propan-2-yl)-1,2-dihydroquinolin-3-yl]oxy}-N-methylacetamide] | < 10 | 50 to 70

Other lines, results leading:

Row | IC50 [1] [nM] | Dmax [2] [%] | Compound
7 | < 10 | 50 to 70 | CNC(=O)COc1cc2cc(Nc3nc(N4CCC(CN5CCC6(CC5)CCN(c5cccc7c5C(=O)N(C5CCC(=O)NC5=O)C7=O)C6)CC4)ncc3Cl)ccc2n(C(C)C)c1=O (stereo not drawn) [compound 512, 2-{[6-({5-chloro-2-[4-({2-[2-(2,6-dioxopiperidin-3-yl)-1,3-dioxo-2,3-dihydro-1H-isoindol-4-yl]-2,8-diazaspiro[4.5]decan-8-yl}methyl)piperidin-1-yl]pyrimidin-4-yl}amino)-2-oxo-1-(propan-2-yl)-1,2-dihydroquinolin-3-yl]oxy}-N-methylacetamide]
8 | < 10 | ≥ 70 | CNC(=O)COc1cc2cc(Nc3nc(N4CCC5(CCN(CC6CCN(c7cccc8c7C(=O)N(C7CCC(=O)NC7=O)C8=O)CC6)CC5)C4)ncc3Cl)ccc2n(C(C)C)c1=O (stereo not drawn) [compound 513, 2-{[6-({5-chloro-2-[8-({1-[2-(2,6-dioxopiperidin-3-yl)-1,3-dioxo-2,3-dihydro-1H-isoindol-4-yl]piperidin-4-yl}methyl)-2,8-diazaspiro[4.5]decan-2-yl]pyrimidin-4-yl}amino)-2-oxo-1-(propan-2-yl)-1,2-dihydroquinolin-3-yl]oxy}-N-methylacetamide]
9 | < 10 | ≥ 70 | CNC(=O)COc1cc2cc(Nc3nc(N4CCN(CC5CC6(CCN(c7cccc8c7C(=O)N(C7CCC(=O)NC7=O)C8=O)CC6)C5)CC4)ncc3Cl)ccc2n(C(C)C)c1=O (stereo not drawn) [compound 517, 2-{[6-({5-chloro-2-[4-({7-[2-(2,6-dioxopiperidin-3-yl)-1,3-dioxo-2,3-dihydro-1H-isoindol-4-yl]-7-azaspiro[3.5]nonan-2-yl}methyl)piperazin-1-yl]pyrimidin-4-yl}amino)-2-oxo-1-(propan-2-yl)-1,2-dihydroquinolin-3-yl]oxy}-N-methylacetamide]
10 | < 10 | ≥ 70 | CNC(=O)COc1cc2cc(Nc3nc(N4CCC5(CN(CC6CCN(c7cccc8c7C(=O)N(C7CCC(=O)NC7=O)C8=O)CC6)C5)C4)ncc3Cl)ccc2n(C(C)C)c1=O (stereo not drawn) [compound 519, 2-{[6-({5-chloro-2-[2-({1-[2-(2,6-dioxopiperidin-3-yl)-1,3-dioxo-2,3-dihydro-1H-isoindol-4-yl]piperidin-4-yl}methyl)-2,6-diazaspiro[3.4]octan-6-yl]pyrimidin-4-yl}amino)-2-oxo-1-(propan-2-yl)-1,2-dihydroquinolin-3-yl]oxy}-N-methylacetamide]
11 | < 10 | < 50 | CNC(=O)COc1cc2cc(Nc3nc(N4CCC5(CC4)CCN(C4CCN(c6cccc7c6C(=O)N(C6CCC(=O)NC6=O)C7=O)CC4)C5)ncc3Cl)ccc2n(C(C)C)c1=O (stereo not drawn) [compound 520, 2-[(6-{[5-chloro-2-(2-{1-[2-(2,6-dioxopiperidin-3-yl)-1,3-dioxo-2,3-dihydro-1H-isoindol-4-yl]piperidin-4-yl}-2,8-diazaspiro[4.5]decan-8-yl)pyrimidin-4-yl]amino}-2-oxo-1-(propan-2-yl)-1,2-dihydroquinolin-3-yl)oxy]-N-methylacetamide]
12 | < 10 | 50 to 70 | CNC(=O)COc1cc2cc(Nc3nc(N4CCN(CC5CN(C6CCN(c7cccc8c7C(=O)N(C7CCC(=O)NC7=O)C8=O)CC6)C5)CC4)ncc3Cl)ccc2n(C(C)C)c1=O (stereo not drawn) [compound 524, 2-({6-[(5-chloro-2-{4-[(1-{1-[2-(2,6-dioxopiperidin-3-yl)-1,3-dioxo-2,3-dihydro-1H-isoindol-4-yl]piperidin-4-yl}azetidin-3-yl)methyl]piperazin-1-yl}pyrimidin-4-yl)amino]-2-oxo-1-(propan-2-yl)-1,2-dihydroquinolin-3-yl}oxy)-N-methylacetamide]
